For one data set, the system named is unwashed human platelets. Kind of data set: Prevention of the aggregation of human platelets (plasma rich in platelets). The data set is classed as cell-based. As to conditions: Platelet. The procedure: The studies were carried out with platelets in their natural surroundings (plasma rich in platelets). The inhibiting agent was tested in the presence of four types of aggregating agents (ADP, adrenalin, collagen, arachidonic acid) at various concentrations.
For each case, a dose-response curve was established.

Data set [1] concerns aortic strips isolated from rabbits (contractions induced by noradrenaline). Kind of data set: In vitro alpha-blocking activity: antagonism of noradrenaline-induced contractions of aortic strips. In kind it is cell-based. Conditions: Oryctolagus cuniculus, read-out: CI 50 (50% inhibition of standard contraction induced by noradrenaline), noradrenaline 2×10^-6 M/l. The procedure: In vitro alpha-blocking activity is determined by the antagonism of contractions of aortic strips isolated from rabbits. The contractions are induced by noradrenaline at a concentration of 2×10^-6 M/l. The technique utilized is derived from that of Furchgott and Bhadrakom (J. Pharmacol., 1953, 108, 129-43). The agonist is introduced in the bath 30 seconds or 14 minutes after the addition of the antagonist.

The test system of data set [2] is hypertension induced by phenylephrine. Kind of data set: In vivo alpha-blocking activity: antagonism of hypertension induced by phenylephrine, intravenous, amyelic rats. Conditions: for inhibition in vivo at 1.6 mg/kg / inhibition in vivo at 3.2 mg/kg / inhibition in vivo at 0.2 mg/kg: Rattus norvegicus, iv, read-out: % of maximum activity (percentage inhibition); for time for the residual activity to become 50% of the maximum activity: i.v. As to the method:
(§1) The in vivo alpha-blocking activity is estimated by the measurement of the antagonism of hypertension induced by phenylephrine. For intravenous administration, amyelic rats with both vagus nerves removed according to the technique of J. S. Gillespie and T. C. Muir (Br. J. Pharmac. Chemother., 1967, 30, 78-87) are used. The alpha-blocking agents are administered at doses of 0.2, 1.6 and 3.2 mg/kg.

The test system is the same in data set [3]. Kind of data set: In vivo alpha-blocking activity: antagonism of hypertension induced by phenylephrine, oral, awake male rats. Conditions: 5 mg/kg. As to the method:
as §1
(§2) For oral administration, male rats kept awake and fitted with catheters implanted in the carotid artery and in the jugular vein are used. Compound COR 28 11 results in a maximum activity of 56.7±10.25% at a dose of 5 mg/kg. After 60 minutes, the activity is still 30%. The antihypertensive activity is determined on rats of Okamoto stock that are spontaneously hypertensive and anesthesized with pentobarbital. A dose of 0.1 mg/kg of compound COR 28 11 administered intravenously causes the average blood pressure to go from 135 to 106 mm of mercury.

Another data set in a line: in vivo. As to conditions: mouse; for mortality: oral, Swiss mice, solvent varies by compound, read-out: Percentage mortality. The procedure: The toxicity of the compounds described in the present invention was determined by performing tests with Swiss mice. The animals, free of specific pathogenic organisms, are kept in an air-conditioned room for 24 to 48 hours before the beginning of the experiment. The animals are divided into groups consisting of 5 males and 5 females. The substances are administered with the appropriate carrier in a volume corresponding to 0.1 ml per 10 g of animal weight.
The following tables display the LD 50 determined for each compound, for oral and intraperitoneal administration, by utilizing the method described by J. C. Cazin (Bull. Soc. Pharm. Lille, 1972, 4, 187). In case the LD 50 could not be measured, the mortality percentages produced by various doses are reported.

The subject of data set [4] is rats of Okamoto stock that are spontaneously hypertensive. Kind of data set: Antihypertensive activity in spontaneously hypertensive rats. Conditions: i.v., 0.1 mg/kg; from 135 mm of mercury; anesthetized with pentobarbital. In kind it is in vivo. The procedure: as §2
The mark [5] stands for this setting: read-out: I 50 (50% inhibition of platelet aggregation), ADP 1.25μM/l.
[6] abbreviates: read-out: I 50 (50% inhibition of platelet aggregation), ADP 2.5μM/l.
The mark [7] stands for this setting: read-out: I 50 (50% inhibition of platelet aggregation), adrenalin 1μM/l.
Setting [8] is: read-out: I 50 (50% inhibition of platelet aggregation), adrenalin 5μM/l.
Where [9] appears, read: read-out: I 50 (50% inhibition of platelet aggregation), arachidonic acid 5·10^-4 M/l.
[10] abbreviates: read-out: I 50 (50% inhibition of platelet aggregation), arachidonic acid 10^-3 M/l.
The mark [11] stands for this setting: read-out: I 50 (50% inhibition of platelet aggregation), collagen 50μg/ml.
Setting [12] is: agonist 30 seconds after antagonist (not flagged with *).

Structures are written as SMILES. Structures can show the parent of a compound that is named as a salt. Where two headings read alike, the source gives them in different places.

Take `COc1cc(C(C)C)c(OCCN(C)CCOc2c(OC)cccc2OC)cc1C` [drawing 28]: the IC50 in the data set on unwashed human platelets (setting [5]) is 70 µM; with unwashed human platelets (setting [6]) it was 74 µM; with unwashed human platelets (setting [7]) it was 16 µM; in the data set on unwashed human platelets (setting [8]), 40 µM; with unwashed human platelets (setting [9]), greater than 100 µM; in the data set with unwashed human platelets (setting [10]), greater than 100 µM. In addition, in the data set with unwashed human platelets (setting [11]), the IC50 was determined as 100 µM.
For the compound `COc1cc(C(C)C)c(OCCN(C)CCOc2c(OC)cccc2OC)cc1C` [COR 28 11, hydrochloride of N-(2,6-dimethoxyphenoxyethyl)-N-methyl-2-[(2-isopropyl-4-methoxy-5-methyl)phenoxy]ethylamine], in data set [1] (14 min, contact time 14 min), the IC50 was found to be 21.6 µM. Moreover, the inhibition in vivo at 1.6 mg/kg in data set [2] (1.6 mg/kg) amounted to 61.8 ± 4.9%. Besides, the inhibition in vivo at 3.2 mg/kg in data set [2] (3.2 mg/kg) came out at 74.6 ± 4.4%. For the same compound, the “time for the residual activity to become 50% of the maximum activity” value in data set [2] (1.6 mg/kg, given in m and s) is greater than 60 min; in data set [2] (3.2 mg/kg, given in m and s) it was 60 min. Moreover, in data set [3], the maximum activity is 56.7±10.25%. In data set [3] (after 60 minutes), the “activity after 60 minutes” value stood at 30%. Further, the LD50 in the data set “in vivo” (ip) was 93 mg/kg; in the data set “in vivo” (po), 546 mg/kg. For the same compound, the “average blood pressure after administration” value in data set [4] is on record as 106 mm of mercury.
For the compound `Cc1cc(OCCN(C)CCCc2ccccc2)c(C(C)C)cc1O` [COR 28 23, hydrochloride of 5-isopropyl-2-methyl-4-[N-methyl-N-(3-phenylpropyl)aminoethoxy]phenol], the IC50 in data set [1] (setting [12]) amounted to 2.7 µM. For the same compound, the inhibition in vivo at 1.6 mg/kg in data set [2] (1.6 mg/kg) was determined as 81.1 ± 2.35%. Besides, in data set [2] (1.6 mg/kg, given in m and s), the “time for the residual activity to become 50% of the maximum activity” value was determined as 20 min. In addition, the LD50 in the data set “in vivo” (ip) is 154 mg/kg; in “in vivo” (po) it was 615 mg/kg.
On to `Cc1cc(OCCNCC2COc3ccccc3O2)c(C(C)C)cc1O` (centres unmarked) [COR 28 14, hydrochloride of N-[(4-hydroxy-2-isopropyl-5-methyl)phenoxyethyl]-[2-(1,4-benzodioxane)]methylamine], for which, in data set [1] (setting [12]), the IC50 was determined as 6 µM. In addition, the inhibition in vivo at 1.6 mg/kg in data set [2] (1.6 mg/kg) worked out at 92 ± 2.45%. For the same compound, the inhibition in vivo at 3.2 mg/kg in data set [2] (3.2 mg/kg) is 100%. In data set [2] (3.2 mg/kg, given in m and s), the “time for the residual activity to become 50% of the maximum activity” value was greater than 60 min. For the same compound, the LD50 came to 174 mg/kg in the data set “in vivo” (ip) and 952 mg/kg in the data set “in vivo” (po).
Regarding `CC(=O)Oc1cc(C(C)C)c(OCCN(C)CC2COc3ccccc3O2)cc1C` (centres unmarked) [COR 28 13, hydrochloride of N-[(4-acetoxy-2-isopropyl-5-methyl)phenoxyethyl]-N-methyl-[2-(1,4-benzodioxane)]methylamine], the IC50 in data set [1] (setting [12]) was found to be 252 µM. Also, in data set [2] (1.6 mg/kg), the inhibition in vivo at 1.6 mg/kg amounted to 46.1 ± 6.01%. In data set [2] (3.2 mg/kg), the inhibition in vivo at 3.2 mg/kg turned out to be 61.1 ± 6.4%. Further, in “in vivo” (ip), the LD50 came to 600 mg/kg. The mortality was found to be 0% in “in vivo” (1000 mg/kg) and 20% in “in vivo” (2000 mg/kg).
Take `Cc1cc(OCCN(C)CC2COc3ccccc3O2)c(C(C)C)cc1O` (centres unmarked) [COR 28 12, hydrochloride of N-[(4-hydroxy-2-isopropyl-5-methyl)phenoxyethyl]-N-methyl-[2-(1,4-benzodioxane)]methylamine]: the IC50 in data set [1] (setting [12]) is 90 µM. For the same compound, in data set [2] (1.6 mg/kg), the inhibition in vivo at 1.6 mg/kg was found to be 59.1 ± 7.5%. Further, in data set [2] (3.2 mg/kg), the inhibition in vivo at 3.2 mg/kg was found to be 65.7 ± 4.5%. The LD50 in the data set “in vivo” (ip) worked out at 350 mg/kg; in the data set “in vivo” (po), 1430 mg/kg.
As to `COc1cc(C(C)C)c(OCCN(C)CCOc2ccccc2)cc1C` [COR 28 09, hydrochloride of N-methyl-N-phenoxyethyl-2-[(2-isopropyl-4-methoxy-5-methyl)phenoxy]ethylamine], the IC50 in data set [1] (setting [12]) came out at 260 µM. For the same compound, the inhibition in vivo at 1.6 mg/kg in data set [2] (1.6 mg/kg) is 51.4 ± 5.1%. The inhibition in vivo at 3.2 mg/kg in data set [2] (3.2 mg/kg) is 74.7 ± 5.2%. Moreover, the LD50 in “in vivo” (ip) is 200 mg/kg. For the same compound, in “in vivo” (1000 mg/kg), the mortality came to 0%.
As for `Cc1cc(OCCNCC2COc3ccccc3O2)c(C(C)C)cc1O` (centres unmarked) [drawing 29], the IC50 in the data set on unwashed human platelets (setting [5]) turned out to be 60 µM; in the data set with unwashed human platelets (setting [6]), 58 µM; in the data set on unwashed human platelets (setting [7]), 24 µM; in the data set with unwashed human platelets (setting [8]), 50 µM; in the data set on unwashed human platelets (setting [9]), 15 µM; in the data set on unwashed human platelets (setting [10]), 54 µM. For the same compound, the IC50 in the data set with unwashed human platelets (setting [11]) was found to be 52 µM.
Regarding `CC(=O)Oc1cc(C(C)C)c(OCCN(C)C)cc1C` [Moxisylyte, reference compound], the IC50 in data set [1] (setting [12]) came out at 17 µM. Further, the inhibition in vivo at 1.6 mg/kg in data set [2] (1.6 mg/kg) came out at 83.1 ± 5.71%. For the same compound, in data set [2] (3.2 mg/kg), the inhibition in vivo at 3.2 mg/kg worked out at 82.6 ± 4.54%. Further, the LD50 in “in vivo” (ip) came out at 73 mg/kg; in “in vivo” (po) it was 225 mg/kg.
Consider `Cc1cc(OCCNCCCc2ccccc2)c(C(C)C)cc1O` [COR 28 21, hydrochloride of 5-isopropyl-2-methyl-4-[N-(3-phenylpropyl)aminoethoxy]phenol], for which the IC50 in data set [1] (setting [12]) was 11.7 µM. Moreover, the inhibition in vivo at 1.6 mg/kg in data set [2] (1.6 mg/kg) was found to be 73.4 ± 6.99%. Moreover, the “time for the residual activity to become 50% of the maximum activity” value in data set [2] (1.6 mg/kg, given in m and s) is 50 min. Also, the LD50 was determined as 84.6 mg/kg in the data set “in vivo” (ip) and 359 mg/kg in “in vivo” (po).
Regarding `COc1cccc(OC)c1OCCN(C)CCOc1cc(C)c(O)cc1C(C)C` [COR 28 22, hydrochloride of 4-[N-(2,6-dimethoxyphenoxyethyl)-N-methylaminoethoxy]-5-isopropyl-2-methylphenol], in data set [1] (setting [12]), the IC50 was determined as 0.178 µM. Also, the inhibition in vivo at 0.2 mg/kg in data set [2] (0.2 mg/kg) came out at 91.1 ± 3.46%. The inhibition in vivo at 1.6 mg/kg in data set [2] (1.6 mg/kg) came to 112 ± 7.3%. Further, the “time for the residual activity to become 50% of the maximum activity” value was 35 min in data set [2] (0.2 mg/kg); 120 min in data set [2] (1.6 mg/kg, given in m and s). The LD50 in “in vivo” (ip) amounted to 66.2 mg/kg; in the data set “in vivo” (po), 316 mg/kg.
Regarding `COc1cccc(OC)c1OCCNCCOc1cc(C)c(O)cc1C(C)C` [COR 28 25, hydrochloride of 4-[N-(2,6-dimethoxyphenoxyethyl)aminoethoxy]-5-isopropyl-2-methylphenol], in data set [2] (0.2 mg/kg), the inhibition in vivo at 0.2 mg/kg came out at 70.2 ± 4.89% and the “time for the residual activity to become 50% of the maximum activity” value amounted to 20 min. Moreover, the inhibition in vivo at 1.6 mg/kg in data set [2] (1.6 mg/kg) came to 94.8 ± 2.22%. The “time for the residual activity to become 50% of the maximum activity” value in data set [2] (1.6 mg/kg, given in m and s) amounted to 120 min.
Turning to `COc1cc(C(C)C)c(OCCNCCOc2ccccc2)cc1C` [COR 28 10, hydrochloride of N-phenoxyethyl-2-[(2-iso-propyl-4-methoxy-5-methyl)phenoxy]ethylamine], in data set [1] (setting [12]), the IC50 turned out to be 350 µM. In data set [2] (1.6 mg/kg), the inhibition in vivo at 1.6 mg/kg was 66.3 ± 1.83%. Besides, the inhibition in vivo at 3.2 mg/kg in data set [2] (3.2 mg/kg) turned out to be 77%. The LD50 in “in vivo” (ip) stood at 81 mg/kg. Further, the mortality in “in vivo” (1000 mg/kg) was 20%.

For orientation: LD50 means the dose at which mortality reaches 50%. Lower therefore signals greater toxicity. The mortality is the percentage killed.

The values above are taken from patent publication US4818772A, “Derivatives of 4-aminoethoxy-5-isopropyl-2-methylbenzenes: methods of synthesis and utilization as medicines” (Societe Cortial S.A., priority 1981, dated 1989).
